Assay results taken from US10456407B2, “Combination therapy for treating cancer” (Epizyme, Inc., priority 2015, dated 2019).

Columns and labels:
Type in all cases: cell-based
SU-DHL10 cells [1] = test: RT2 Glucocorticoid signaling PCR array, SU-DHL10 (SUDHL10) cell line (Table 4d); details: SUDHL10, 4 days, vs DMSO
Excerpt: (§1) Expression levels of (A). Sestrin; (B). TNF and (C) GILZ normalized to DMSO controls for each cell line with the indicated single agent or combination.

RL cells = test: RT2 Glucocorticoid signaling PCR array, RL (Table 4e, printed RI) cell line; details: 4 days, Cpd44 1 uM, Pred 10-fold below 4-day IC50, vs DMSO, B2M-normalized
Excerpt: as §1

SMARCB1 protein levels = test: SMARCB1 (INI1) western blot in lymphoma cells; details: single agent treatment
Excerpt: Glucocorticoid bound GR molecules move to the nucleus and can act as either transcriptional activator or repressor, depending on the cellular environment. […] Accessibility to GR binding sites can further be enhanced by ATP-dependent chromatin remodeling, and the SWI/SNF complex plays a key role in this activity. Not wishing to be bound by a particular theory or a specific mechanism of action, it is conceivable that aberrant chromatin repression, induced by EZH2 mediated hypertrimethylation of H3K27, can block some of the otherwise accessible GR binding sites, interfering with normal GR mediated gene induction or repression.

OCI-Ly19 cells = test: RT2 Glucocorticoid signaling PCR array, OCI-LY19 (Table 4a, printed OCT) cell line; details: vs DMSO
SU-DHL10 cells [2] = test: RT2 Glucocorticoid signaling PCR array, SU-DHL10 (SUDHL10) cell line (Table 4d); details: SUDHL10, 4 days, vs DMSO; remark: listed apart in the source

SMILES: CCN(c1cc(-c2ccc(CN3CCOCC3)cc2)cc(C(=O)NCc2c(C)cc(C)[nH]c2=O)c1C)C1CCOCC1 [Compound 44]
- ADARB1 ΔΔCT (SU-DHL10 cells [1]): 0.073
- AK2 ΔΔCT (SU-DHL10 cells [1]): −0.101
- ARIDS8 ΔΔCT (SU-DHL10 cells [1]): 0.650
- ASPH ΔΔCT (SU-DHL10 cells [1]): 0.296
- CEBPA ΔΔCT (SU-DHL10 cells [1]): −1.026
- DDIT4 ΔΔCT (SU-DHL10 cells [1]): 1.444
- H6PD ΔΔCT (SU-DHL10 cells [1]): 1.221
- LOX ΔΔCT (SU-DHL10 cells [1]): 1.164
- NR3C1 ΔΔCT (SU-DHL10 cells [1]): 0.527
- PER2 ΔΔCT (SU-DHL10 cells [1]): 0.441
- SPHK1 ΔΔCT (SU-DHL10 cells [1]): 0.231
- STAT5B ΔΔCT (SU-DHL10 cells [1]): 0.027
- TNF ΔΔCT (SU-DHL10 cells [1]): −0.204
- VDR ΔΔCT (SU-DHL10 cells [1]): −0.714
- ΔΔCT (RL cells; AMPD3 mRNA): −0.885
- ΔΔCT (RL cells; ASPH mRNA): 0.476
- ΔΔCT (RL cells; BCL6 mRNA): 0.263
- ΔΔCT (RL cells; FOSL2 mRNA): −1.274
- ΔΔCT (RL cells; TSC22D3 mRNA): 0.189
- ΔΔCT (RL cells; ZFP36 mRNA): −0.036
- SMARCB1 protein levels (SMARCB1 protein levels): no effect
- ΔΔCT, ADARB1 (OCI-Ly19 cells; gene ADARB1): −0.789
- ΔΔCT, AK2 (OCI-Ly19 cells; gene AK2): −0.017
- ΔΔCT, ANGPTL4 (OCI-Ly19 cells; gene ANGPTL4): −0.305
- ΔΔCT, ARID68 (OCI-Ly19 cells; gene ARID68): 0.232
- ΔΔCT, ASPH (OCI-Ly19 cells; gene ASPH): −0.584
- ΔΔCT, ATF4 (OCI-Ly19 cells; gene ATF4): 0.124
- ΔΔCT, BCL6 (OCI-Ly19 cells; gene BCL6): −1.395
- ΔΔCT, CEBPB (OCI-Ly19 cells; gene CEBPB): 0.390
- ΔΔCT COL4A2 (OCI-Ly19 cells; gene COL4A2): 0.309
- ΔΔCT, CREB3L4 (OCI-Ly19 cells; gene CREB3L4): −0.376
- ΔΔCT CTGF (OCI-Ly19 cells; gene CTGF): −0.052
- ΔΔCT, DDIT4 (OCI-Ly19 cells; gene DDIT4): −0.749
- ΔΔCT, DUSP1 (OCI-Ly19 cells; gene DUSP1): −0.395
- ΔΔCT, EHD3 (OCI-Ly19 cells; gene EHD3): −1.081
- ΔΔCT, FK8PS (OCI-Ly19 cells; gene FK8PS): −0.319
- ΔΔCT, FOSL2 (OCI-Ly19 cells; gene FOSL2): −0.226
- ΔΔCT, GDPD1 (OCI-Ly19 cells; gene GDPD1): −0.020
- ΔΔCT GLUL (OCI-Ly19 cells; gene GLUL): −0.745
- ΔΔCT, H6PD (OCI-Ly19 cells; gene H6PD): −0.915
- ΔΔCT, HNRPLL (OCI-Ly19 cells; gene HNRPLL): −0.346
- ΔΔCT, IL1RN (OCI-Ly19 cells; gene IL1RN): −1.244
- ΔΔCT, KLF9 (OCI-Ly19 cells; gene KLF9): −1.215
- ΔΔCT, KLF13 (OCI-Ly19 cells; gene KLF13): −0.452
- ΔΔCT, LOX (OCI-Ly19 cells; gene LOX): −0.733
- ΔΔCT MERTK (OCI-Ly19 cells; gene MERTK): −0.805
- ΔΔCT MTZA (OCI-Ly19 cells; gene MTZA): −0.118
- ΔΔCT, NFKBIA (OCI-Ly19 cells; gene NFKBIA): 0.019
- ΔΔCT, NR3C1 (OCI-Ly19 cells; gene NR3C1): −0.023
- ΔΔCT PDCC7 (OCI-Ly19 cells; gene PDCC7): 0.024
- ΔΔCT PDGFRB (OCI-Ly19 cells; gene PDGFRB): 0.934
- ΔΔCT, PDP1 (OCI-Ly19 cells; gene PDP1): −0.518
- ΔΔCT, PIK3R1 (OCI-Ly19 cells; gene PIK3R1): −0.274
- ΔΔCT, PLEKHF1 (OCI-Ly19 cells; gene PLEKHF1): −0.736
- ΔΔCT, POU2F1 (OCI-Ly19 cells; gene POU2F1): −0.120
- ΔΔCT, POU2F2 (OCI-Ly19 cells; gene POU2F2): 0.031
- ΔΔCT, RASA3 (OCI-Ly19 cells; gene RASA3): −0.075
- ΔΔCT, RHOB (OCI-Ly19 cells; gene RHOB): −1.378
- ΔΔCT, SESN1 (OCI-Ly19 cells; gene SESN1): −0.253
- ΔΔCT, SGK1 (OCI-Ly19 cells; gene SGK1): −0.458
- ΔΔCT, SLC10A6 (OCI-Ly19 cells; gene SLC10A6): −1.185
- ΔΔCT, SLC19A2 (OCI-Ly19 cells; gene SLC19A2): −0.211
- ΔΔCT, SLC22A5 (OCI-Ly19 cells; gene SLC22A5): −0.367
- ΔΔCT, SNTA1 (OCI-Ly19 cells; gene SNTA1): −0.908
- ΔΔCT, SPHK1 (OCI-Ly19 cells; gene SPHK1): 0.016
- ΔΔCT, STAT5A (OCI-Ly19 cells; gene STAT5A): 0.113
- ΔΔCT, STAT5B (OCI-Ly19 cells; gene STAT5B): −0.121
- ΔΔCT, TNFAIP3 (OCI-Ly19 cells; gene TNFAIP3): 0.317
- ΔΔCT, TSC22D3 (OCI-Ly19 cells; gene TSC22D3): −0.671
- ΔΔCT, USP2 (OCI-Ly19 cells; gene USP2): −2.822
- ΔΔCT, USPS4 (OCI-Ly19 cells; gene USPS4): 0.165
- ΔΔCT, VDR (OCI-Ly19 cells; gene VDR): −0.553
- ΔΔCT, ZFP36 (OCI-Ly19 cells; gene ZFP36): 0.427
- ΔΔCT, ZHX3 (OCI-Ly19 cells; gene ZHX3): −0.394
- ΔΔCT, ZNF281 (OCI-Ly19 cells; gene ZNF281): 0.531
- AFF1 ΔΔCT (SU-DHL10 cells [2]): 0.650
- AMPD3 ΔΔCT (SU-DHL10 cells [2]): −0.556
- ANGPTL4 ΔΔCT (SU-DHL10 cells [2]): 0.615
- ANXA4 ΔΔCT (SU-DHL10 cells [2]): −2.475
- BCL6 ΔΔCT (SU-DHL10 cells [2]): 0.640
- CEBPB ΔΔCT (SU-DHL10 cells [2]): 3.019
- CREB1 ΔΔCT (SU-DHL10 cells [2]): −0.051
- CREB3L4 ΔΔCT (SU-DHL10 cells [2]): 0.806
- CREB3 ΔΔCT (SU-DHL10 cells [2]): 0.421
- CYB561 ΔΔCT (SU-DHL10 cells [2]): −2.399
- DUSP1 ΔΔCT (SU-DHL10 cells [2]): 1.099
- EHD3 ΔΔCT (SU-DHL10 cells [2]): −0.855
- FK8PS ΔΔCT (SU-DHL10 cells [2]): 0.042
- FOSL2 ΔΔCT (SU-DHL10 cells [2]): −0.063
- GDPD1 ΔΔCT (SU-DHL10 cells [2]): −1.405
- HNRPLL ΔΔCT (SU-DHL10 cells [2]): 0.071
- KLF9 ΔΔCT (SU-DHL10 cells [2]): −1.127
- KLF13 ΔΔCT (SU-DHL10 cells [2]): −1.636
- NFKBIA ΔΔCT (SU-DHL10 cells [2]): 0.602
- PDCD7 ΔΔCT (SU-DHL10 cells [2]): 0.802
- PDP1 ΔΔCT (SU-DHL10 cells [2]): 0.016
- PER1 ΔΔCT (SU-DHL10 cells [2]): 0.780
- PIK3R1 ΔΔCT (SU-DHL10 cells [2]): 0.831
- PLEKHF1 ΔΔCT (SU-DHL10 cells [2]): 0.469
- POU2F1 ΔΔCT (SU-DHL10 cells [2]): 0.006
- POU2F2 ΔΔCT (SU-DHL10 cells [2]): 0.424
- RA5A3 ΔΔCT (SU-DHL10 cells [2]): 0.385
- RGS2 ΔΔCT (SU-DHL10 cells [2]): 0.072
- RHOB ΔΔCT (SU-DHL10 cells [2]): −1.475
- SESN1 ΔΔCT (SU-DHL10 cells [2]): −1.646
- SGK1 ΔΔCT (SU-DHL10 cells [2]): 1.943
- SLC10A6 ΔΔCT (SU-DHL10 cells [2]): −0.648
- SLC19A2 ΔΔCT (SU-DHL10 cells [2]): −1.413
- SLC22A5 ΔΔCT (SU-DHL10 cells [2]): −1.733
- SNTA1 ΔΔCT (SU-DHL10 cells [2]): 0.531
- SPSB1 ΔΔCT (SU-DHL10 cells [2]): −0.444
- STAT5A ΔΔCT (SU-DHL10 cells [2]): 0.384
- TBL1XR1 ΔΔCT (SU-DHL10 cells [2]): 0.234
- TNFAIP3 ΔΔCT (SU-DHL10 cells [2]): 0.124
- TSC22D3 ΔΔCT (SU-DHL10 cells [2]): 2.709
- USP2 ΔΔCT (SU-DHL10 cells [2]): 0.070
- USPS4 ΔΔCT (SU-DHL10 cells [2]): −0.064
- VLDLR ΔΔCT (SU-DHL10 cells [2]): 4.246
- ZFP36 ΔΔCT (SU-DHL10 cells [2]): 0.215
- ZHX3 ΔΔCT (SU-DHL10 cells [2]): −1.169
- ZNF281 ΔΔCT (SU-DHL10 cells [2]): −0.437
